# Measured values taken from ChEMBL document CHEMBL1201862, “PubChem BioAssay data set” (2004).
#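 Briefly, cells in 96-well plates were exposed to five compound concentrations for 48 h, and endpoints were estimated by linear interpolation. GI50 is the concentration that inhibits growth by half.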 Active and inactive are the calls of the source. Cut-off read from the data, not from the text of the source: active = GI50 up to about 1.1 µM and inactive = higher.
# Legend:
# Experiment in all cases: DTP human tumour cell line panel, 48 h
# [1] = test system: 786-0
# [2] = test system: A498
# [3] = test system: A549
# [4] = test system: ACHN
# [5] = test system: CCRF-CEM
# [6] = test system: COLO 205
# [7] = test system: DLD-1
# [8] = test system: DMS-114
# [9] = test system: DMS-273
# [10] = test system: EKVX
# [11] = test system: HCC 2998
# [12] = test system: HCT-15
# [13] = test system: HL-60
# [14] = test system: HOP-62
# [15] = test system: HOP-92
# [16] = test system: HT-29
# [17] = test system: IGROV-1
# [18] = test system: K562
# [19] = test system: KM-20L2
# [20] = test system: KM12
# [21] = test system: M14
# [22] = test system: M19-MEL
# [23] = test system: MOLT-4
# [24] = test system: Malme-3M
# [25] = test system: NCI-H226
# [26] = test system: NCI-H23
# [27] = test system: NCI-H460
# [28] = test system: NCI-H522
# [29] = test system: OVCAR-3
# [30] = test system: OVCAR-4
# [31] = test system: OVCAR-5
# [32] = test system: OVCAR-8
# [33] = test system: RPMI-8226
# [34] = test system: RXF 393
# [35] = test system: RXF 631
# [36] = test system: SF-268
# [37] = test system: SF-295
# [38] = test system: SF-539
# [39] = test system: SK-MEL-28
# [40] = test system: SK-MEL-2
# [41] = test system: SK-MEL-5
# [42] = test system: SK-OV-3
# [43] = test system: SN12C
# [44] = test system: SNB-19
# [45] = test system: SNB-75
# [46] = test system: SNB-78
# [47] = test system: SR
# [48] = test system: TK-10
# [49] = test system: U-251
# [50] = test system: UACC-257
# [51] = test system: UACC-62
# [52] = test system: UO-31
# [53] = test system: CAKI-1
# [54] = test system: HCT-116
# [55] = test system: HOP-18
# [56] = test system: LOX IMVI
# [57] = test system: SW-620
# [58] = test system: XF498
# [59] = test system: LXFL 529
smiles,measurement,setting,value
O=C1CCCC2COc3ccc(O)c1c32 (centres undefined),GI50,[1],> 100 µM (inactive)
same,GI50,[2],> 100 µM (inactive)
same,GI50,[3],> 100 µM (inactive)
same,GI50,[4],> 100 µM (inactive)
same,GI50,[5],> 100 µM (inactive)
same,GI50,[6],> 100 µM (inactive)
same,GI50,[7],> 100 µM (inactive)
same,GI50,[8],> 100 µM (inactive)
same,GI50,[9],> 100 µM (inactive)
same,GI50,[10],> 100 µM (inactive)
same,GI50,[11],> 100 µM (inactive)
same,GI50,[12],> 100 µM
same,GI50,[13],> 100 µM (inactive)
same,GI50,[14],> 100 µM (inactive)
same,GI50,[15],> 100 µM (inactive)
same,GI50,[16],> 100 µM (inactive)
same,GI50,[17],> 100 µM (inactive)
same,GI50,[18],> 100 µM (inactive)
same,GI50,[19],> 100 µM (inactive)
same,GI50,[20],> 100 µM (inactive)
same,GI50,[21],> 100 µM (inactive)
same,GI50,[22],> 100 µM (inactive)
same,GI50,[23],> 100 µM (inactive)
same,GI50,[24],> 100 µM (inactive)
same,GI50,[25],> 100 µM (inactive)
same,GI50,[26],> 100 µM (inactive)
same,GI50,[27],> 100 µM (inactive)
same,GI50,[28],> 100 µM (inactive)
same,GI50,[29],> 100 µM (inactive)
same,GI50,[30],> 100 µM (inactive)
same,GI50,[31],> 100 µM (inactive)
same,GI50,[32],> 100 µM (inactive)
same,GI50,[33],> 100 µM (inactive)
same,GI50,[34],> 100 µM (inactive)
same,GI50,[35],> 100 µM (inactive)
same,GI50,[36],> 100 µM (inactive)
same,GI50,[37],> 100 µM (inactive)
same,GI50,[38],> 100 µM (inactive)
same,GI50,[39],> 100 µM (inactive)
same,GI50,[40],> 100 µM (inactive)
same,GI50,[41],> 100 µM (inactive)
same,GI50,[42],> 100 µM (inactive)
same,GI50,[43],> 100 µM (inactive)
same,GI50,[44],> 100 µM (inactive)
same,GI50,[45],> 100 µM (inactive)
same,GI50,[46],> 100 µM (inactive)
same,GI50,[47],> 100 µM (inactive)
same,GI50,[48],> 100 µM (inactive)
same,GI50,[49],> 100 µM (inactive)
same,GI50,[50],> 100 µM (inactive)
same,GI50,[51],> 100 µM (inactive)
same,GI50,[52],> 100 µM (inactive)
C/C=C/C=C\C(=O)C1c2cccc(O)c2C(=O)c2c(O)cc(C)cc21 (centres undefined),GI50,[1],2.03 µM (inactive)
same,GI50,[2],2.74 µM (inactive)
same,GI50,[3],0.719 µM (active)
same,GI50,[4],1.35 µM (inactive)
same,GI50,[53],2.08 µM (inactive)
same,GI50,[5],1.27 µM (inactive)
same,GI50,[6],1.64 µM (inactive)
same,GI50,[7],1.9 µM (inactive)
same,GI50,[8],0.383 µM (active)
same,GI50,[9],1.65 µM (inactive)
same,GI50,[10],3.38 µM (inactive)
same,GI50,[11],0.306 µM (active)
same,GI50,[54],1.52 µM (inactive)
same,GI50,[12],1.76 µM
same,GI50,[13],0.294 µM (active)
same,GI50,[55],1.88 µM (inactive)
same,GI50,[14],2.04 µM (inactive)
same,GI50,[15],1.39 µM (inactive)
same,GI50,[16],2.06 µM (inactive)
same,GI50,[17],1.57 µM (inactive)
same,GI50,[18],0.356 µM (active)
same,GI50,[19],1.98 µM (inactive)
same,GI50,[20],0.425 µM (active)
same,GI50,[56],1.79 µM (inactive)
same,GI50,[22],0.828 µM (active)
same,GI50,[23],2.92 µM (inactive)
same,GI50,[24],1.68 µM (inactive)
same,GI50,[25],1.11 µM (active)
same,GI50,[26],1.76 µM (inactive)
same,GI50,[27],0.406 µM (active)
same,GI50,[28],1.66 µM (inactive)
same,GI50,[29],1.02 µM (active)
same,GI50,[30],1.7 µM (inactive)
same,GI50,[31],1.82 µM (inactive)
same,GI50,[32],1.81 µM (inactive)
same,GI50,[33],2.14 µM (inactive)
same,GI50,[34],1.37 µM (inactive)
same,GI50,[36],0.705 µM (active)
same,GI50,[37],0.957 µM (active)
same,GI50,[38],0.432 µM (active)
same,GI50,[39],1.69 µM (inactive)
same,GI50,[40],1.01 µM (active)
same,GI50,[41],1.39 µM (inactive)
same,GI50,[42],1.43 µM (inactive)
same,GI50,[43],2.33 µM (inactive)
same,GI50,[44],0.442 µM (active)
same,GI50,[45],1.29 µM (inactive)
same,GI50,[46],1.65 µM (inactive)
same,GI50,[57],1.19 µM (inactive)
same,GI50,[48],1.7 µM (inactive)
same,GI50,[49],0.446 µM (active)
same,GI50,[50],1.83 µM (inactive)
same,GI50,[52],1.71 µM (inactive)
same,GI50,[58],0.232 µM (active)
Cc1ncc(CCl)c(CCl)c1O,GI50,[1],> 100 µM (inactive)
same,GI50,[2],> 100 µM (inactive)
same,GI50,[4],> 100 µM (inactive)
same,GI50,[53],> 100 µM (inactive)
same,GI50,[5],> 100 µM (inactive)
same,GI50,[6],> 100 µM (inactive)
same,GI50,[7],> 100 µM (inactive)
same,GI50,[8],> 100 µM (inactive)
same,GI50,[9],> 100 µM (inactive)
same,GI50,[11],> 100 µM (inactive)
same,GI50,[54],> 100 µM (inactive)
same,GI50,[13],> 100 µM (inactive)
same,GI50,[14],> 100 µM (inactive)
same,GI50,[15],> 100 µM (inactive)
same,GI50,[17],> 100 µM (inactive)
same,GI50,[18],> 100 µM (inactive)
same,GI50,[59],> 100 µM (inactive)
same,GI50,[21],> 100 µM (inactive)
same,GI50,[22],> 100 µM (inactive)
same,GI50,[23],> 100 µM (inactive)
same,GI50,[24],> 100 µM (inactive)
same,GI50,[25],> 100 µM (inactive)
same,GI50,[26],> 100 µM (inactive)
same,GI50,[28],> 100 µM (inactive)
same,GI50,[30],> 100 µM (inactive)
same,GI50,[33],> 100 µM (inactive)
same,GI50,[35],> 100 µM (inactive)
same,GI50,[36],> 100 µM (inactive)
same,GI50,[38],> 100 µM (inactive)
same,GI50,[39],> 100 µM (inactive)
same,GI50,[40],> 100 µM (inactive)
same,GI50,[42],> 100 µM (inactive)
same,GI50,[43],> 100 µM (inactive)
same,GI50,[45],> 100 µM (inactive)
same,GI50,[47],> 100 µM (inactive)
same,GI50,[51],> 100 µM (inactive)
same,GI50,[52],> 100 µM (inactive)
same,GI50,[58],> 100 µM (inactive)
